From patent US10611740B2, “Aryl dihydro-2H-benzo[b][1,4]oxazine sulfonamide and related compounds for use as agonists of RORγ and the treatment of disease” (Lycera Corporation, priority 2015, dated 2020)

Assays:
[1] = target: T1, RORγ-LBD (Homo sapiens, UniProt P51449); assay: RORγ-Ligand Binding Domain (LBD) TR-FRET Assay; format: biochemical;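 for TR-FRET Assay Max Response: 665/615 nm ratio relative to signal without ursolic acid or compound set at 100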
T1 construct: made in house; host or cells: SF9 cells (baculovirus)
T1 sequence (P51449 269-508 limits assumed): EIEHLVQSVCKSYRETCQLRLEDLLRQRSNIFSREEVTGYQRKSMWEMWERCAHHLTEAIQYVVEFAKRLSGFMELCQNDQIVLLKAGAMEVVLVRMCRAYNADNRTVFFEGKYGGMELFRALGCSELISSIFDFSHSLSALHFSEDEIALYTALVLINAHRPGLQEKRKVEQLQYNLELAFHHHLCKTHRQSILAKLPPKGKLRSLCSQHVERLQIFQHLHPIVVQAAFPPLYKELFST
In short: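 Compounds, diluted in DMSO and then in assay buffer (1% DMSO final), were combined with His-tagged RORγ-LBD lysate at roughly 3 nM final and a 200 nM biotinylated SRC1 LXXLL peptide. Ursolic acid was included at 2 μM final. Coactivator recruitment was detected by TR-FRET.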

[2] = target: T2, Gal4-RORγ-LBD (Homo sapiens, UniProt P51449); assay: Gal4-RORγ Luciferase Reporter Assay in HEK-293T Cells; format: cell-based; settings: HEK-293 cells, luciferase reporter, with 2 μM ursolic acid
T2 construct: expressed in transfected cells; host or cells: HEK-293 cells (pcDNA3.1neo plasmid)
T2 sequence (P51449 269-508 limits assumed): T1 sequence (P51449 269-508 limits assumed)
In short: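 HEK-293 cells were transiently co-transfected with Gal4-RORγ-LBD and pGL4.31 Gal4-luciferase, with ursolic acid added at 2 μM final. Compounds were incubated overnight at 37° C. in 0.2% DMSO and luminescence read with One-Glo. Max Response is the upper plateau of a 4-parameter logistic fit, with signal lacking ursolic acid or compound set to 100.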

With `O=C(O)CC[C@H]1CN(S(=O)(=O)c2cccc(C(F)(F)F)c2)c2cc(-c3cc(F)cc(Cl)c3)ccc2O1` [Compound 2I, (S)-3-(6-(3-chloro-5-fluorophenyl)-4-((3-(trifluoro-methyl)phenyl)sulfonyl)-3,4-dihydro-2H-benzo[b][1,4]-oxazin-2-yl)propanoic acid] as the compound, how does the EC50 [1] read?
Its EC50 is less than 0.5 µM.

What about the “TR-FRET Assay Max Response” value [1] of the same compound?
Its value is “*** (The symbol “***” indicates a value in the range of greater than 150 to 200)”.

What about the EC50 [2] of the same compound?
Its EC50 is less than 0.5 µM.

What about the “Gal4-RORγ Assay Max Response” value [2] of the same compound?
The value was “*** (The symbol “***” indicates a value in the range of greater than 150 to 200)”.

Which EC50 [1] does the source give for `O=C(O)CC[C@H]1CN(S(=O)(=O)c2cccc(C(F)(F)F)c2)c2cc(-c3ccc(F)c(Cl)c3)ccc2O1` [Compound 2J, (S)-3-(6-(3-chloro-4-fluorophenyl)-4-((3-(trifluoromethyl)phenyl)-sulfonyl)-3,4-dihydro-2H-benzo[b][1,4]oxazin-2-yl)propanoic acid] here?
The EC50 was less than 0.5 µM.

What about the “TR-FRET Assay Max Response” value [1] of the same compound?
Its value is “** (The symbol “**” indicates a value in the range of greater than 90 to 150)”.

And the EC50 [2]?
Its EC50 is 0.5 to 5 µM.

And the “Gal4-RORγ Assay Max Response” value [2]?
Its value is “* (The symbol “*” indicates a value in the range of 25 to 90)”.

`O=C(O)CC[C@H]1CN(S(=O)(=O)c2cccc(C(F)(F)F)c2)c2cc(-c3cc(Cl)cc(Cl)c3)ccc2O1` [Compound 2L, (S)-3-(6-(3,5-dichlorophenyl)-4-((3-(trifluoromethyl)phenyl)-sulfonyl)-3,4-dihydro-2H-benzo[b][1,4]oxazin-2-yl)propanoic acid] was tested. Which EC50 [1] did it give?
Its EC50 is less than 0.5 µM.

What about the “TR-FRET Assay Max Response” value [1] of the same compound?
The value was “*** (The symbol “***” indicates a value in the range of greater than 150 to 200)”.

And the EC50 [2]?
The EC50 was less than 0.5 µM.

And the “Gal4-RORγ Assay Max Response” value [2]?
The value was “*** (The symbol “***” indicates a value in the range of greater than 150 to 200)”.

For `O=C(O)CC[C@H]1CN(S(=O)(=O)c2cccc(C(F)(F)F)c2)c2cc(-c3cccc(C(F)(F)F)c3F)ccc2O1` [Compound 2N, (S)-3-(6-(2-fluoro-3-(trifluoromethyl)phenyl)-4-((3-(trifluoromethyl)phenyl)-sulfonyl)-3,4-dihydro-2H-benzo[b][1,4]oxazin-2-yl)propanoic acid], which EC50 [1] is on record?
The EC50 was less than 0.5 µM.

And the “TR-FRET Assay Max Response” value [1]?
The value was “*** (The symbol “***” indicates a value in the range of greater than 150 to 200)”.

What about the EC50 [2] of the same compound?
The EC50 was less than 0.5 µM.

And the “Gal4-RORγ Assay Max Response” value [2]?
The value was “*** (The symbol “***” indicates a value in the range of greater than 150 to 200)”.

What does the source list for `O=C(O)CC[C@H]1CN(S(=O)(=O)c2cccc(C(F)(F)F)c2)c2cc(-c3cc(C(F)(F)F)ccc3F)ccc2O1` [Compound 2O, (S)-3-(6-(2-fluoro-5-(trifluoromethyl)phenyl)-4-((3-(trifluoromethyl)phenyl)-sulfonyl)-3,4-dihydro-2H-benzo[b][1,4]oxazin-2-yl)propanoic acid]?
EC50 [1]: < 0.5 µM; TR-FRET Assay Max Response [1]: *** (The symbol “***” indicates a value in the range of greater than 150 to 200); EC50 [2]: < 0.5 µM; Gal4-RORγ Assay Max Response [2]: *** (The symbol “***” indicates a value in the range of greater than 150 to 200)

`Cc1ccccc1-c1ccc2c(c1)N(S(=O)(=O)c1cccc(C(F)(F)F)c1)C[C@H](CCC(=O)O)O2` [Compound 2P, (S)-3-(6-(o-tolyl)-4-((3-(trifluoromethyl)phenyl)-sulfonyl)-3,4-dihydro-2H-benzo[b][1,4]oxazin-2-yl)propanoic acid] was tested. Which EC50 [1] did it give?
Its EC50 is less than 0.5 µM.

And the “TR-FRET Assay Max Response” value [1]?
Its value is “*** (The symbol “***” indicates a value in the range of greater than 150 to 200)”.

And the EC50 [2]?
The EC50 was less than 0.5 µM.

What about the “Gal4-RORγ Assay Max Response” value [2] of the same compound?
Its value is “*** (The symbol “***” indicates a value in the range of greater than 150 to 200)”.

With `Cc1cccc(-c2ccc3c(c2)N(S(=O)(=O)c2cccc(C(F)(F)F)c2)C[C@H](CCC(=O)O)O3)c1` [Compound 2Q, (S)-3-(6-(m-tolyl)-4-((3-(trifluoromethyl)phenyl)-sulfonyl)-3,4-dihydro-2H-benzo[b][1,4]oxazin-2-yl)propanoic acid] as the compound, how does the EC50 [1] read?
The EC50 was less than 0.5 µM.

What about the “TR-FRET Assay Max Response” value [1] of the same compound?
The value was “*** (The symbol “***” indicates a value in the range of greater than 150 to 200)”.

And the EC50 [2]?
Its EC50 is less than 0.5 µM.

What about the “Gal4-RORγ Assay Max Response” value [2] of the same compound?
Its value is “*** (The symbol “***” indicates a value in the range of greater than 150 to 200)”.

How did the EC50 [1] turn out when `O=C(O)CC[C@H]1CN(S(=O)(=O)c2cccc(C(F)(F)F)c2)c2cc(-c3cccc(Cl)c3F)ccc2O1` [Compound 2R, (S)-3-(6-(3-chloro-2-fluorophenyl)-4-((3-(trifluoromethyl)phenyl)-sulfonyl)-3,4-dihydro-2H-benzo[b][1,4]oxazin-2-yl)propanoic acid] was run?
Its EC50 is less than 0.5 µM.

What about the “TR-FRET Assay Max Response” value [1] of the same compound?
The value was “**** (The symbol “****” indicates a value greater than 200)”.

What about the EC50 [2] of the same compound?
The EC50 was less than 0.5 µM.

And the “Gal4-RORγ Assay Max Response” value [2]?
Its value is “*** (The symbol “***” indicates a value in the range of greater than 150 to 200)”.

Which EC50 [1] does the source give for `COc1ccc(Cl)cc1-c1ccc2c(c1)N(S(=O)(=O)c1cccc(C(F)(F)F)c1)C[C@H](CCC(=O)O)O2` [Compound 2S, (S)-3-(6-(5-chloro-2-methoxyphenyl)-4-((3-(trifluoromethyl)phenyl)-sulfonyl)-3,4-dihydro-2H-benzo[b][1,4]oxazin-2-yl)propanoic acid] here?
Its EC50 is less than 0.5 µM.

And the “TR-FRET Assay Max Response” value [1]?
The value was “**** (The symbol “****” indicates a value greater than 200)”.

What about the EC50 [2] of the same compound?
Its EC50 is less than 0.5 µM.

And the “Gal4-RORγ Assay Max Response” value [2]?
The value was “** (The symbol “**” indicates a value in the range of greater than 90 to 150)”.

Which results are given for `COc1ccccc1-c1ccc2c(c1)N(S(=O)(=O)c1cccc(C(F)(F)F)c1)C[C@H](CCC(=O)O)O2` [Compound 2T, (S)-3-(6-(2-methoxyphenyl)-4-((3-(trifluoromethyl)phenyl)-sulfonyl)-3,4-dihydro-2H-benzo[b][1,4]oxazin-2-yl)propanoic acid]?
EC50 [1]: < 0.5 µM; TR-FRET Assay Max Response [1]: **** (The symbol “****” indicates a value greater than 200); EC50 [2]: < 0.5 µM; Gal4-RORγ Assay Max Response [2]: *** (The symbol “***” indicates a value in the range of greater than 150 to 200)

What does the source list for `COc1ccc(-c2ccc3c(c2)N(S(=O)(=O)c2cccc(C(F)(F)F)c2)C[C@H](CCC(=O)O)O3)cc1` [Compound 2U, (S)-3-(6-(4-methoxyphenyl)-4-((3-(trifluoromethyl)phenyl)-sulfonyl)-3,4-dihydro-2H-benzo[b][1,4]oxazin-2-yl)propanoic acid]?
EC50 [1]: < 0.5 µM; TR-FRET Assay Max Response [1]: *** (The symbol “***” indicates a value in the range of greater than 150 to 200); EC50 [2]: 0.5 to 5 µM; Gal4-RORγ Assay Max Response [2]: * (The symbol “*” indicates a value in the range of 25 to 90)

`COc1cncc(-c2ccc3c(c2)N(S(=O)(=O)c2cccc(C(F)(F)F)c2)C[C@H](CCC(=O)O)O3)c1` [Compound 2V, (S)-3-(6-(5-methoxypyridin-3-yl)-4-((3-(trifluoromethyl)-phenyl)sulfonyl)-3,4-dihydro-2H-benzo[b][1,4]oxazin-2-yl)propanoic acid] was tested. Which EC50 [1] did it give?
Its EC50 is less than 0.5 µM.

What about the “TR-FRET Assay Max Response” value [1] of the same compound?
Its value is “*** (The symbol “***” indicates a value in the range of greater than 150 to 200)”.

And the EC50 [2]?
The EC50 was less than 0.5 µM.

What about the “Gal4-RORγ Assay Max Response” value [2] of the same compound?
The value was “** (The symbol “**” indicates a value in the range of greater than 90 to 150)”.

How did the EC50 [1] turn out when `O=C(O)CC[C@H]1CN(S(=O)(=O)c2cccc(C(F)(F)F)c2)c2cc(-c3ccc(F)cc3Cl)ccc2O1` [Compound 2W, (S)-3-(6-(2-chloro-4-fluorophenyl)-4-((3-(trifluoromethyl)phenyl)-sulfonyl)-3,4-dihydro-2H-benzo[b][1,4]oxazin-2-yl)propanoic acid] was run?
The EC50 was less than 0.5 µM.

And the “TR-FRET Assay Max Response” value [1]?
Its value is “*** (The symbol “***” indicates a value in the range of greater than 150 to 200)”.

And the EC50 [2]?
Its EC50 is 0.5 to 5 µM.

And the “Gal4-RORγ Assay Max Response” value [2]?
The value was “** (The symbol “**” indicates a value in the range of greater than 90 to 150)”.

How did the EC50 [1] turn out when `Cc1ccc(-c2ccc3c(c2)N(S(=O)(=O)c2cccc(C(F)(F)F)c2)C[C@H](CCC(=O)O)O3)cc1` [Compound 2X, (S)-3-(6-(p-tolyl)-4-((3-(trifluoromethyl)phenyl)-sulfonyl)-3,4-dihydro-2H-benzo[b][1,4]oxazin-2-yl)propanoic acid] was run?
The EC50 was less than 0.5 µM.

And the “TR-FRET Assay Max Response” value [1]?
Its value is “**** (The symbol “****” indicates a value greater than 200)”.

What about the EC50 [2] of the same compound?
Its EC50 is less than 0.5 µM.

And the “Gal4-RORγ Assay Max Response” value [2]?
The value was “** (The symbol “**” indicates a value in the range of greater than 90 to 150)”.

Which EC50 [1] does the source give for `CC(C)c1cccc(-c2ccc3c(c2)N(S(=O)(=O)c2cccc(C(F)(F)F)c2)C[C@H](CCC(=O)O)O3)c1` [Compound 2Y, (S)-3-(6-(3-isopropylphenyl)-4-((3-(trifluoromethyl)phenyl)-sulfonyl)-3,4-dihydro-2H-benzo[b][1,4]oxazin-2-yl)propanoic acid] here?
Its EC50 is less than 0.5 µM.

And the “TR-FRET Assay Max Response” value [1]?
The value was “*** (The symbol “***” indicates a value in the range of greater than 150 to 200)”.

What about the EC50 [2] of the same compound?
Its EC50 is less than 0.5 µM.

What about the “Gal4-RORγ Assay Max Response” value [2] of the same compound?
Its value is “** (The symbol “**” indicates a value in the range of greater than 90 to 150)”.

`CC(C)c1ccc(-c2ccc3c(c2)N(S(=O)(=O)c2cccc(C(F)(F)F)c2)C[C@H](CCC(=O)O)O3)cc1` [Compound 2Z, (S)-3-(6-(4-isopropylphenyl)-4-((3-(trifluoromethyl)phenyl)-sulfonyl)-3,4-dihydro-2H-benzo[b][1,4]oxazin-2-yl)propanoic acid] was tested. Which EC50 [1] did it give?
The EC50 was less than 0.5 µM.

What about the “TR-FRET Assay Max Response” value [1] of the same compound?
The value was “** (The symbol “**” indicates a value in the range of greater than 90 to 150)”.

What about the EC50 [2] of the same compound?
The EC50 was greater than 10 µM.
